These results are taken from article PMC11266098, “Prenylated flavonoids from Sophora flavescens inhibit mushroom tyrosinase activity and modulate melanogenesis in murine melanoma cells and zebrafish” (Frontiers in Pharmacology, 2024).

“Also recorded” adds a separate entry of the source.

One data set deals with TRP-1. Briefly: Western blotting of TRP-1 in B16F10 cells. Particulars: 10 μM, 48 h. The class given is cell-based, murine. On the procedure: (§1) Equal amounts of proteins from the preceding step were loaded and separated by using the 10% SDS-PAGE gels before being electro-transferred onto polyvinylidene fluoride membranes. The membrane was then blocked with 5% skim milk in TBST (Tris-buffered saline containing 0.1% Tween 20) at room temperature for 2 h. The blots were incubated overnight with primary antibodies against TYR, TRP-1, MITF, DCT, and β-actin at 4°C. After washing thrice with TBST (5 min), the membrane was incubated with the secondary antibody for 1 h at room temperature. The protein bands were detected using the ECL detection kit and imaged using a chemiluminescence gel imaging system, and the band intensities were analyzed by the Image J software.
A general note: Immunoblotting shows a protein as a band on a membrane.

A further data set deals with mushroom tyrosinase (Agaricus bisporus, UniProt C7FF04). Briefly: Tyrosinase inhibition kinetic analysis (Lineweaver-Burk). The class given is biochemical. Particulars: Lineweaver-Burk plots, L-tyrosine substrate. On the procedure: The enzyme reaction kinetics of these compounds were measured by constructing Lineweaver-Burk plots of inverse velocities (1/[V]), contrary to the inverse of substrate concentration (1/[S]) ([Yoshino and Murakami, 2009]; [Butt et al., 2019]). Preincubations and measurement times were performed using the same protocol as described above. The substrate tyrosine concentration was kept between 0.5 and 8 mM in all kinetic studies, test sample concentrations were set as follows: glabridin (0–0.625 µM), KR (0–5 µM), SG (0–10 µM), IAI (0–2 µM). The values of the kinetic constants were calculated using Lineweaver-Burk plot analysis, and the maximum velocity (Vmax) and Michaelis constant (Km) were also calculated by the Lineweaver-Burk plots with the various concentrations of substrate.

For another data set, the system named is TYR. Briefly: Western blotting of TYR in B16F10 cells. Particulars: 10 μM, 48 h. The class given is cell-based, murine. On the procedure: as §1, with “[…],” for “TRP-1,”
The test system of a further data set is DCT. Briefly: Western blotting of DCT in B16F10 cells. Particulars: 10 μM, 48 h. The class given is cell-based, murine. On the procedure: as §1
Another data set has as its system zebrafish embryos. The data set can be described thus: Determination of the maximum tolerated concentration (MTC) in zebrafish embryos. The class given is in vivo. Particulars: 10 μM, 24 h. On the procedure:
Zebrafish embryos that were developing normally at 24 h were chosen at random, five zebrafish embryos per well were seeded in 48 well plates, and each group was set up with three duplicates. The embryo culture medium in the 48-well plate was removed except the blank group, and 1 mL of culture medium containing different concentrations of test samples was added to treatment groups for 24 h. The vehicle control group was added to the embryo culture medium containing 0.1% of DMSO.

In data set [1] the target is T1, Intracellular tyrosinase in B16F10 cells (Mus musculus, UniProt P11344).
T1 construct: endogenous in cells; host or cells: B16F10 murine melanoma cells
T1 sequence (P11344 19-533): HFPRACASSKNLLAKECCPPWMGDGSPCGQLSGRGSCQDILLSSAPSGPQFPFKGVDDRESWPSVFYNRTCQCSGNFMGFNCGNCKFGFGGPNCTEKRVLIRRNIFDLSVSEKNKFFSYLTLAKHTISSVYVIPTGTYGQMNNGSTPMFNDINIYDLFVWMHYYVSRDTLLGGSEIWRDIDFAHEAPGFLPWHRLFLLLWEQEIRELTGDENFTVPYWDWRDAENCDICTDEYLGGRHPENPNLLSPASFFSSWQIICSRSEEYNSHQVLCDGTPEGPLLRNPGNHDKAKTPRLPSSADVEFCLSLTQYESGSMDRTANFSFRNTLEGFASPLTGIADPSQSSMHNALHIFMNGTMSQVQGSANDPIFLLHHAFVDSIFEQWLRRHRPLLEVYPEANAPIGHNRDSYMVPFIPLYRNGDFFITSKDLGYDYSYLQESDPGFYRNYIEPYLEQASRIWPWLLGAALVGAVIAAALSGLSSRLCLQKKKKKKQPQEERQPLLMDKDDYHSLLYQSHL
Briefly: Measurement of tyrosinase activity in B16F10 cells (L-DOPA oxidation). The class given is cell-based, murine. Particulars: 48 h. On the procedure:
Intracellular tyrosinase activity was determined by measuring the rate of oxidation of L-DOPA to dopachrome according to a previously described method with a slight modification ([Maack and Pegard, 2016]). The tyrosinase inhibitor glabridin ([Zhang et al., 2023]) and tyrosinase activator 8-MOP ([Yin et al., 2018]) were both utilized as controls to ensure the accuracy of tyrosinase activity assay in living cells. B16F10 cells were cultured in 24-well plates at the density of 5 × 10^4 cells/mL overnight and then treated with different concentrations of test samples for 48 h. After treatments, cells were washed twice with PBS, lysed with PBS containing 1% Triton X-100, and frozen at −80°C for 1 h. The lysates were then clarified by centrifugation for 20 min at 4°C, 12,000 r/min. The protein content in the supernatants was measured using the Pierce BCA protein assay kit. After protein quantification and the adjustment of the protein concentrations, 100 μL of each lysate was mixed with 100 μL of 4 mM L-DOPA in a 96-well plate, and then incubated at 37°C for 1 h, the optical density at 475 nm was measured using a microplate reader. Tyrosinase activity was expressed as a percentage of the control. All experiments were carried out at least three times.

Another data set has as its system zebrafish larvae. The data set can be described thus: Melanogenesis in zebrafish larvae pretreated with PTU. Particulars: 10 μM, 48 h, PTU 200 μM pretreatment. The class given is in vivo. On the procedure:
To assess the effects of these compounds on melanogenesis in vivo, the total melanin content of whole zebrafish extracts was measured according to a previously described method with minor modification ([Karunarathne et al., 2019]; [Ding et al., 2021]). Briefly, zebrafish larvae of 24 h post-fertilized (hpf) were seeded in 24-well plates with ten embryos per well, each group was set up with four replicates and pretreated with 200 μM PTU for 24 h. Then, the culture medium was replaced with different concentrations of test samples and treated for another 48 h. 8-MOP (50 μM) was used as a positive control, blank controls were not treated and were cultured normally. In addition, to further verify the whitening effect of the compounds, ten zebrafish larvae (24 hpf) per well were seeded in a 24-well plate and cultured for another 24 h using fresh culture media, and each group was set up with four duplicates. Then, the culture medium was replaced with different concentrations of test samples, and the zebrafish larvae were incubated for another 48 h. 8-MOP (50 μM) and arbutin (100 mM) were used as positive controls. Spontaneous melanin content was measured from zebrafish larvae at 96 hpf. The fish embryos were fixed upright with sodium carboxymethylcellulose fixative. Five fish embryos from each experiment were randomly selected for photography under a stereomicroscope. The densitometric analysis was performed using Image J software.

The test system of a further data set is B16F10 cells. Briefly: Measurement of melanin content in B16F10 cells. The class given is cell-based, murine. Particulars: 48 h. On the procedure:
Measurement of melanin content was carried out according to a previously described method with a slight modification ([Karunarathne et al., 2019]). B16F10 cells were cultured in 6-well plates at the density of 2 × 10^5 cells/mL overnight before being treated with different concentrations of test samples for 48 h. After the treatments, the medium was discarded and the cells were washed twice with PBS and were collected, then 200 μL of RIPA lysis buffer was added to each well, and left standing in an ice bath for 40 min. The lysates were then clarified by centrifugation for 20 min at 4°C, 12,000 r/min. The protein content in the supernatants was measured using the Pierce BCA protein assay kit. Then the harvested cell pellets were photographed and dissolved in 100 μL of 1 M NaOH (containing 10% DMSO) at 100°C for 1 h. Melanin content was determined by measuring absorption at 405 nm. For the accurate calculation of melanin content, absorbance values were normalized to total protein absorbance values.

The nature of data set [2]: Cell viability assay (MTT). The class given is cell-based, murine. Particulars: mouse, B16F10 cells, 0–10 μM. On the procedure:
B16F10 cells were seeded into 96-well plates at the density of 5 × 10^4 cells/mL, and incubated at 37°C for 24 h. Then, the cells were treated with different concentrations of test samples for 48 h. After incubation, 20 μL MTT (5 mg/mL) was added to each well, and incubated for another 4 h at 37°C. The reaction was stopped by adding 150 μL DMSO per well. The optical density at 490 nm was measured using a microplate reader. Cell viability was calculated as the percentage of viable cells relative to the control group.

The target of the next data set is tyrosinase. The arrangement: method as in Kim et al., 2003. Particulars: ref Kim et al., 2003; read-out: IC50 (inhibition on tyrosinase activity); cited from earlier work.

Usually viability stands for a per cent measure of how many cells are alive, often set against a control. A low value points to more harm to the cells. Usually IC50 stands for the concentration that gives 50% inhibition.

mushroom tyrosinase, sequence (C7FF04 1-392): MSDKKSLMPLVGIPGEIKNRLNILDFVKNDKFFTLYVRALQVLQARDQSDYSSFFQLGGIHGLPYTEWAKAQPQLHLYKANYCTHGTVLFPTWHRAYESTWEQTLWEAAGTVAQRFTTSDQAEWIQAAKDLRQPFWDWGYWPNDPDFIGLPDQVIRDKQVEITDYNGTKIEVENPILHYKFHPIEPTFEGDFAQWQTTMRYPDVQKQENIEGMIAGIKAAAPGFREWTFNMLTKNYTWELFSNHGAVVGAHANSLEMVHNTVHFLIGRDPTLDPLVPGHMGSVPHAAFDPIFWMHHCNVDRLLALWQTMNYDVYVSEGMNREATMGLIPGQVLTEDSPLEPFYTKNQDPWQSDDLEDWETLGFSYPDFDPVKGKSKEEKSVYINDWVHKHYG

With `C=C(C)[C@H](CC=C(C)C)Cc1c(O)cc(O)c2c1O[C@H](c1ccc(O)cc1O)CC2=O` [SG, sophoraflavanone G], the “upregulation of relative expression of TRP-1 protein” value with TRP-1 worked out at 229.3%. Besides, the “inhibition type on tyrosinase” value against mushroom tyrosinase was “mixed type”. For the same compound, the “increase of expression of TYR” value in the data set on TYR is 78.4%. Further, in the data set with DCT, the “upregulation of relative expression of DCT protein” value is 70.0%. Moreover, the “toxicity in zebrafish by the MTC assay” value in the data set on zebrafish embryos is “nontoxic”. For the same compound, the “increase of tyrosinase activity in B16F10 cells” value in data set [1] (10 μM) was found to be 45.7%. Moreover, the “effect on tyrosinase activity in B16F10 cells (in words)” value in data set [1] was “did not exhibit significant activity”. Moreover, in the data set on zebrafish larvae, the “effect on melanin production vs model (PTU) group (in words)” value is “no effect”. For the same compound, in the data set with B16F10 cells, the “effect on melanin production in B16F10 cells (in words)” value was “did not exhibit significant activity; also recorded: did not exert any significant effects”. The viability at 48 h in data set [2] was above 80%. Moreover, on tyrosinase, the IC50 is 6.6 µM.
